Among the test systems are ACHN; HL-60; SF-295; K562; NCI-H226; IGROV-1; OVCAR-4; HT-29; A498; M14; OVCAR-3; CCRF-CEM; MOLT-4; COLO 205; HCC 2998; SK-MEL-2; NCI-H522.
Common to all, as to test: growth of human tumour cells (NCI), 48 h

Each structure is given as a SMILES string.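 Exposure lasted 48 hours, with cells grown in 96-well plates and compounds tested at five concentrations. Abbreviation: GI50, concentration required for 50% inhibition of growth.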 The source made the active and inactive calls. No stated cut-off is given here; in the data, active = GI50 up to about 1.1 µM and inactive = higher.

`CC(C)c1cccc(C(C)C)c1NC(=O)CCC(=O)NN`: the GI50 in the assay with ACHN was > 100 µM (inactive); in the assay with HL-60, > 100 µM (inactive); with SF-295, > 100 µM (inactive); in the assay on K562 it was 58.6 µM (inactive); in the assay on NCI-H226, > 100 µM (inactive); in the assay with IGROV-1 it was > 100 µM (inactive). Besides, the GI50 in the assay with OVCAR-4, with HT-29, with A498, with M14, with OVCAR-3 and in the assay with CCRF-CEM was > 100 µM (inactive) throughout. The results for the GI50 in the assay on MOLT-4, with COLO 205 and with HCC 2998 were > 100 µM (inactive), 19.6 µM (inactive) and > 100 µM (inactive), respectively.

Consider `O=C(CC/C(CC(=O)c1ccc(Cl)cc1)=N\O)Nc1cccc(Cl)c1`, for which the GI50 in the assay on ACHN, in the assay on SF-295, in the assay on K562, in the assay with SK-MEL-2, with IGROV-1 and with OVCAR-4 was > 100 µM (inactive) throughout. For the same molecule, the GI50 in the assay on HT-29, with A498, with M14, with OVCAR-3, in the assay with CCRF-CEM and with MOLT-4 was > 100 µM (inactive) each time. Further, the GI50 with COLO 205 and with HCC 2998 was > 100 µM (inactive) throughout.

Take `COc1cc([C@@H]2c3cc4c(cc3[C@@H](NCc3cccc(C#N)c3)C3COC(=O)[C@@H]32)OCO4)cc(OC)c1O` (stereo partly drawn): the GI50 in the assay on ACHN is 0.305 µM (active); with NCI-H522, 1.46 µM (inactive); in the assay on HL-60 it was 0.149 µM (active); in the assay with SF-295 it was 0.925 µM (active); in the assay on K562, 1.83 µM (inactive); in the assay with SK-MEL-2, 3.77 µM (inactive). The GI50 in the assay with NCI-H226 is 0.225 µM (active); in the assay on IGROV-1, 1.03 µM (active); in the assay on OVCAR-4, 68.7 µM (inactive); with HT-29, 1.48 µM (inactive); with A498 it was 1.43 µM (inactive); with M14, 1.64 µM (inactive). Moreover, the GI50 in the assay on OVCAR-3 is 2.57 µM (inactive); with CCRF-CEM, 0.224 µM (active); in the assay on MOLT-4, 0.0386 µM (active); with COLO 205 it was 2.99 µM (inactive); in the assay on HCC 2998, 1.48 µM (inactive).

For `Cc1cc(=O)n(-c2c(C)cccc2Cl)c(/C=C(\O)c2ccncc2)n1`, the GI50 in the assay on ACHN is > 100 µM (inactive); with NCI-H522 it was > 100 µM (inactive); in the assay with HL-60 it was 6.21 µM (inactive); in the assay on SF-295, > 100 µM (inactive); in the assay with K562, 44.8 µM (inactive); with SK-MEL-2 it was > 100 µM (inactive). Also, the GI50 in the assay on NCI-H226, in the assay with IGROV-1, in the assay with OVCAR-4, in the assay with HT-29, with A498 and in the assay on M14 was > 100 µM (inactive) each time. The GI50 in the assay on OVCAR-3, in the assay on CCRF-CEM, in the assay with MOLT-4, in the assay with COLO 205 and with HCC 2998 was > 100 µM (inactive) in each case.

As for `CCOC(=O)C(=O)Nc1ccccc1C`, the GI50 with ACHN is > 100 µM (inactive); with NCI-H522 it was > 100 µM (inactive); in the assay on HL-60 it was 29.4 µM (inactive); in the assay with K562 it was > 100 µM (inactive); with SK-MEL-2, > 100 µM (inactive); in the assay on NCI-H226 it was > 100 µM (inactive). In addition, the GI50 in the assay on IGROV-1, with OVCAR-4, in the assay on A498, in the assay on M14, in the assay on CCRF-CEM and in the assay with MOLT-4 was > 100 µM (inactive) in each case. Also, the GI50 in the assay on COLO 205 and with HCC 2998 was > 100 µM (inactive) in each case.

Regarding `O=C1Cc2ccccc2N1/N=C\c1ccc([N+](=O)[O-])cc1`, the GI50 in the assay with ACHN, with HL-60, in the assay on SF-295, in the assay on K562, in the assay with SK-MEL-2 and with NCI-H226 was > 100 µM (inactive) each time. Also, the GI50 with IGROV-1, with OVCAR-4, in the assay on HT-29, in the assay on A498, with M14 and in the assay on OVCAR-3 was > 100 µM (inactive) each time. Moreover, the GI50 with CCRF-CEM, in the assay on MOLT-4, in the assay on COLO 205 and with HCC 2998 was > 100 µM (inactive) in each case.

In the case of `CC(C)c1ccc(Cc2ccc(C(C)C)c(NC(=O)C(=O)Cc3cnc4ccccc4n3)c2C(C)C)c(C(C)C)c1NC(=O)C(=O)Cc1cnc2ccccc2n1`, the GI50 with ACHN, in the assay with HL-60, in the assay on SF-295, in the assay on K562, in the assay with SK-MEL-2 and with IGROV-1 was > 100 µM (inactive) each time. The GI50 in the assay with OVCAR-4, in the assay with A498, in the assay with M14, in the assay with OVCAR-3, with CCRF-CEM and in the assay on MOLT-4 was > 100 µM (inactive) each time. For the same molecule, the GI50 in the assay on COLO 205 and with HCC 2998 was > 100 µM (inactive) in each case.

With `CCCNC(=O)C1C(=O)C(=O)N(CCC)C1=O` (stereo not drawn), the GI50 in the assay with ACHN, in the assay on NCI-H522, in the assay on K562, in the assay with SK-MEL-2, in the assay on IGROV-1 and in the assay on OVCAR-4 was > 100 µM (inactive) each time. The GI50 with HT-29, with A498, in the assay with M14, in the assay with OVCAR-3, with CCRF-CEM and in the assay on MOLT-4 was > 100 µM (inactive) throughout. The GI50 in the assay with COLO 205 and in the assay with HCC 2998 was > 100 µM (inactive) in each case.

As to `COC(=O)NC12CC3CC(CC(F)(C3)C1)C2`, the GI50 with ACHN, in the assay on NCI-H522, with HL-60, in the assay on K562, in the assay with SK-MEL-2 and in the assay with IGROV-1 was > 100 µM (inactive) each time. The GI50 with HT-29, in the assay on A498, with M14, with OVCAR-3, in the assay on CCRF-CEM and in the assay with MOLT-4 was > 100 µM (inactive) each time. Moreover, the GI50 in the assay on COLO 205 and in the assay with HCC 2998 was > 100 µM (inactive) in each case.

Take `CCOC(C)OCC#CCCBr` (stereo not drawn): the GI50 in the assay on ACHN is > 100 µM (inactive); in the assay with HL-60 it was 80.5 µM (inactive); with SF-295, > 100 µM (inactive); in the assay with K562, 59.7 µM (inactive); with SK-MEL-2, > 100 µM (inactive); in the assay with IGROV-1 it was > 100 µM (inactive). The GI50 with OVCAR-4 is > 100 µM (inactive); in the assay on HT-29 it was > 100 µM (inactive); in the assay on M14 it was > 100 µM (inactive); with OVCAR-3 it was > 100 µM (inactive); in the assay on CCRF-CEM, 37.1 µM (inactive); in the assay with MOLT-4 it was > 100 µM (inactive). The GI50 with COLO 205 and with HCC 2998 was > 100 µM (inactive) in each case.

With `N#CC(C(=O)CCC(=O)Nc1cccc(C(F)(F)F)c1)c1ccc(Cl)cc1` (stereo not drawn), the GI50 in the assay on ACHN, in the assay on NCI-H522, in the assay with HL-60, with SF-295, with K562 and in the assay on NCI-H226 was > 100 µM (inactive) in each case. Further, the GI50 in the assay with IGROV-1, in the assay on OVCAR-4, in the assay with HT-29, in the assay with A498, in the assay with M14 and in the assay with OVCAR-3 was > 100 µM (inactive) in each case. For the same molecule, the GI50 in the assay on CCRF-CEM, with MOLT-4, with COLO 205 and with HCC 2998 was > 100 µM (inactive) in each case.

With `CCOC(=O)[C@]12C3C=CC(C3)C1C(=O)C1OC12` (stereo partly drawn), the GI50 in the assay on ACHN, in the assay on NCI-H522, with HL-60, with SF-295, in the assay on K562 and in the assay with SK-MEL-2 was > 100 µM (inactive) throughout. The GI50 with NCI-H226, in the assay on IGROV-1, in the assay with OVCAR-4, in the assay with HT-29, in the assay with A498 and with OVCAR-3 was > 100 µM (inactive) in each case. The GI50 in the assay with CCRF-CEM, with MOLT-4, in the assay with COLO 205 and in the assay on HCC 2998 was > 100 µM (inactive) throughout.

On to `Cc1cccc(N(CC(=O)O)S(=O)(=O)c2ccccc2)c1`, for which the GI50 in the assay with ACHN, with NCI-H522, with HL-60, with SF-295, with K562 and in the assay on SK-MEL-2 was > 100 µM (inactive) each time. Further, the GI50 in the assay with NCI-H226, in the assay with IGROV-1, in the assay with OVCAR-4, in the assay with HT-29, with A498 and with M14 was > 100 µM (inactive) throughout. The GI50 in the assay with OVCAR-3, in the assay with CCRF-CEM, in the assay on MOLT-4, in the assay on COLO 205 and in the assay on HCC 2998 was > 100 µM (inactive) throughout.
